Measurements: PubChem BioAssay (NCI)
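Briefly, cells in 96-well plates were exposed to five compound concentrations for 48 h, and endpoints were estimated by linear interpolation. The concentration for 50% growth inhibition is given as GI50. TGI is the concentration that stops growth completely.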

Assays:
Assay in all cases: growth of human tumour cells (NCI), 48 h
[1] = tested on: 786-0 renal
[2] = tested on: SK-OV-3 ovarian
[3] = tested on: SK-MEL-5 melanoma
[4] = tested on: KM12 colon
[5] = tested on: RPMI-8226 leukemia
[6] = tested on: SF-539 CNS
[7] = tested on: HCT-116 colon
[8] = tested on: HOP-62 NSCLC
[9] = tested on: OVCAR-4 ovarian
[10] = tested on: UACC-257 melanoma

Row | Structure (SMILES) | TGI [1] [µM] | TGI [2] [µM] | TGI [3] [µM] | TGI [4] [µM] | TGI [5] [µM] | TGI [6] [µM] | TGI [7] [µM] | GI50 [3] [µM] | GI50 [4] [µM] | TGI [8] [µM] | GI50 [9] [µM] | TGI [9] [µM] | GI50 [1] [µM] | GI50 [8] [µM] | GI50 [5] [µM] | GI50 [10] [µM] | TGI [10] [µM] | GI50 [6] [µM] | GI50 [7] [µM] | GI50 [2] [µM]
1 | Cc1ccc(N=Cc2ccc3c(c2)OCO3)cc1C | > 100 | > 100 | > 100 | > 100 | > 100 | > 100 | > 100 | – | – | – | – | – | – | – | – | – | – | – | – | –
2 | COc1ccc2c(c1)/C(=C\c1c(C)nc3sccn13)C(=O)N2 | > 100 | > 38.3 | 3.39 | 25.5 | > 26.4 | – | > 31.8 | < 0.0474 | < 0.0402 | > 100 | 4.01 | > 100 | – | – | – | – | – | – | – | –
3 | CC(CCC(=O)O)[C@H]1CCC2[C@@H]3CC[C@@H]4CC(O)CC[C@]4(C)C3CC[C@@]21C (some centres undefined) | > 100 | – | – | > 100 | 57.1 | 72.4 | > 100 | – | 40.5 | > 100 | 31.4 | > 100 | 49.3 | 37.2 | 23.6 | 27.7 | > 100 | 26 | 30.4 | –
4 | COc1ccc(/C=C2\CCCC3=C2N=C2SC(C)=NN2C3c2ccc(OC)c(OC)c2)cc1OC (centres undefined) | > 100 | > 100 | > 100 | > 100 | – | > 100 | 14.3 | 6.27 | 8.41 | > 100 | – | – | 11 | 19.8 | – | 9.17 | > 100 | 8.15 | 3.26 | 62.5
5 | O=C(/C=C/c1ccccc1)c1cc(Br)ccc1O | 28.8 | 38.1 | 34.6 | 25.7 | 34 | – | 32.3 | – | – | 46.3 | – | 30.3 | – | – | – | – | 27.9 | – | – | –
6 | Nc1ccn(CCNCCn2cnc3nc(N)[nH]c(=O)c32)c(=O)n1 | > 100 | – | – | > 100 | > 100 | > 100 | > 100 | – | – | > 100 | – | > 100 | – | – | – | – | > 100 | – | – | –
7 | NC1C[C@H](n2cc(/C=C/Br)c(=O)[nH]c2=O)C[C@@H]1CO (some centres undefined) | > 100 | > 100 | – | – | > 100 | > 100 | – | – | – | > 100 | – | > 100 | – | – | – | – | > 100 | – | – | –
8 | COc1cc(OC(C)=O)cc2c(OC(C)=O)ccc(OC(C)=O)c12 | > 100 | – | > 100 | > 100 | > 100 | – | > 100 | – | – | > 100 | – | > 100 | – | – | – | – | > 100 | – | – | –
9 | Nn1c(NNC(=O)C(=O)Nc2cc(Cl)c(Cl)cc2Cl)n[nH]c1=S | > 100 | > 100 | > 100 | > 100 | – | > 100 | > 100 | – | – | > 100 | – | > 100 | – | – | – | – | > 100 | – | – | –
10 | COc1ccc(C2=Nc3ccccc3NC(=O)C2)cc1 | > 100 | 38.2 | > 100 | > 100 | – | 65.6 | 42.3 | – | – | 45.6 | – | > 100 | – | – | – | – | > 100 | – | – | –
11 | CCCNC1=C(C(=O)OCC)C(=O)CO1 | > 100 | – | > 100 | – | > 100 | > 100 | > 100 | – | – | – | – | > 100 | – | – | – | – | > 100 | – | – | –
12 | CCCCCCCCN=C(N)c1ccc(N2CCN(c3ccc(C(N)=NCCCCCCCC)cc3)CC2)cc1 | 5.49 | 10.2 | 2.45 | 8.81 | – | – | 5.99 | 1.05 | 1.9 | 15 | 2.35 | 14.9 | 1.67 | 7.14 | – | 4.03 | 13.2 | – | 1.64 | 1.76
13 | COc1ccc(-c2nc3sc4c(c3c(=O)[nH]2)CCCCCC4)cc1 | > 33.2 | > 33.2 | > 33.2 | > 33.2 | > 33.2 | > 33.2 | > 33.2 | 2.52 | 1.18 | > 33.2 | – | – | 8.08 | 1.87 | > 33.2 | > 33.2 | > 33.2 | 2.56 | 1.39 | 1.6
14 | O=C(COc1ccc2c(=O)cc(-c3ccccc3)oc2c1)N1CCN(c2ccccc2)CC1 | > 100 | > 100 | > 100 | > 100 | > 100 | > 100 | > 100 | – | – | > 100 | – | – | – | – | – | – | > 100 | – | – | –
15 | CCc1ccccc1NC(=O)C(=O)CC(=O)c1sc(Nc2ccccc2)nc1C | > 100 | > 100 | > 100 | > 100 | – | > 100 | > 100 | – | – | > 100 | – | > 100 | – | – | – | – | > 100 | – | – | –
16 | OC(c1cc(-c2ccccc2)nc2ccc(Cl)cc12)C1CCCCN1 (centres undefined) | 4.57 | 14.4 | 3.47 | 3.74 | 5.49 | 3.52 | 3.21 | 1.91 | 1.94 | – | 3.24 | 8.96 | 1.96 | – | 2.25 | 2.23 | 4.13 | 1.84 | 1.76 | 3.85
17 | Cc1cc(N(CCC#N)CCC#N)ccc1N=Nc1cccc(C(=O)O)c1 | > 100 | > 100 | > 100 | > 100 | – | > 100 | – | – | – | > 100 | – | > 100 | – | – | – | – | > 100 | – | – | –
18 | CN(C)CCCNC(CC#N)CCC#N (centres undefined) | > 10 | > 10 | > 10 | > 10 | – | > 10 | > 10 | – | – | > 10 | – | > 10 | – | – | – | – | > 10 | – | – | –
19 | CCCCC(CC)CN=C(N)NC(N)=NCCCCCCN=C(N)NC(N)=NCC(CC)CCCC (centres undefined) | 4.91 | 6.86 | – | – | – | – | – | – | – | – | 1.9 | 4.85 | 2.16 | – | – | 2.62 | 8.73 | – | – | 2.64
20 | O=C(CN1CCOCC1)Nc1nc(-c2ccc(Cl)cc2)cs1 | > 100 | > 100 | – | 48.1 | 53.7 | > 100 | – | – | – | 73.1 | – | > 100 | – | – | – | – | – | – | – | –
